Assay results reported in US4048431A, “Alkylated derivatives of antibiotic BM123γ” (American Cyanamid Company, priority 1975, dated 1977).

Tested on: Escherichia coli US311
Assay: in vivo protection of mice against lethal Escherichia coli US311 infection (single subcutaneous dose)
Design: species or system Escherichia coli US311 in Carworth Farms CF-1 mice
Conditions: Carworth Farms CF-1 mice, about 20 gm., infected intraperitoneally with lethal dose of E. coli US311 (10^-3 TSP dilution of 5 hour TSP blood culture)
Description: These new substances show high in vivo antibacterial activity in mice against Escherichia coli US311 when administered by a single subcutaneous dose to groups of Carworth Farms CF-1 mice, weight about 20 gm., infected intraperitoneally with a lethal dose of this bacteria in a 10^- 3 trypticase soy broth TSP dilution of a 5 hour TSP blood culture. In Table VI below is set forth the in vivo activity of typical products of this invention (prepared from the indicated carbonyl reagents) against Escherichia coli US311 in mice. The activity is expressed in terms of the ED50 or the dose in mg./kg. of body weight required to protect 50% of the mice against E. coli.

Row | Substance | ED50 (dose required to protect 50% of the mice against E. coli) | ED50 (dose required to protect 50% of the mice against E. coli) (listed as 1-methyl-2,2-dimethylpropyl-BM123γ)
1 | 5-methoxyl-2-tetralyl-BM123γ | 0.18 mg./kg. of body weight | 
2 | 1-methyl-2-ethylbutyl-BM123γ | 0.18 mg./kg. of body weight | 
3 | 2,2-dimethylpropyl-BM123γ | 0.18 mg./kg. of body weight | 
4 | 3-methyl-6-isopropylcyclohexyl-BM123γ | 0.38 mg./kg. of body weight | 
5 | 2-ethyl-2-butenyl-BM123γ | 0.18 mg./kg. of body weight | 
6 | 1,2,2-dimethylhydroxypropyl-BM123γ | 0.18 mg./kg. of body weight | 
7 | 1-methylpentyl-BM123γ | 0.38 mg./kg. of body weight | 
8 | cycloheptyl-BM123γ | 0.3 mg./kg. of body weight | 
9 | 2-phenylcyclohexyl-BM123γ | 0.38 mg./kg. of body weight | 
10 | 1-propylpentyl-BM123γ | 0.39 mg./kg. of body weight | 
11 | 1-ethylpropyl-BM123γ | 0.12 mg./kg. of body weight | 
12 | 1,5-dimethylhexen(-4-)yl-BM123γ | 0.06 mg./kg. of body weight | 
13 | adamantyl-2-BM123γ | 0.25 mg./kg. of body weight | 
14 | isopropyl-BM123γ | < 0.12 mg./kg. of body weight | 
15 | 1-methyl-2-acetylethyl-BM123γ | 1.5 mg./kg. of body weight | 
16 | cyclononyl-BM123γ | 0.18 mg./kg. of body weight | 
17 | 2-cyclohexenyl-BM123γ | 0.25 mg./kg. of body weight | 
18 | 1-benzyl-4-piperidyl-BM123γ | 0.18 mg./kg. of body weight | 
19 | 1-methyl-3-phenylpropyl-BM123γ | 0.38 mg./kg. of body weight | 
20 | 1,2,2-trimethylpropyl-BM123γ | < 0.12 mg./kg. of body weight | 0.18 mg./kg. of body weight
21 | 1,2-dimethyl-3-hydroxypropyl-BM123γ | 0.12 mg./kg. of body weight | 

Row | Substance | ED50 (dose required to protect 50% of the mice against E. coli) | ED50 (dose required to protect 50% of the mice against E. coli) (listed as 1-methyl-2,2-dimethylpropyl-BM123γ)
22 | 1-[(dimethoxyphosphinyl)methyl]-hexyl-BM123γ | 0.3 mg./kg. of body weight | 
23 | 1-methyl-2-cyclohexylethyl-BM123γ | 0.18 mg./kg. of body weight | 
24 | 2-ethylcyclohexyl-BM123γ | 0.19 mg./kg. of body weight | 
25 | 1-ethyloctyl-BM123γ | 0.25 mg./kg. of body weight | 
26 | 1-methyl-2,2-dimethoxyethyl-BM123γ | 0.5 mg./kg. of body weight | 
27 | 2-acetamido-1-methylpropyl-BM123γ | 0.50 mg./kg. of body weight | 
28 | 1-cyclopropylethyl-BM123γ | 0.25 mg./kg. of body weight | 
29 | 1-methyl-2-(2-methoxyphenyl)ethyl-BM123γ | 0.7 mg./kg. of body weight | 
30 | 1-methyl-2-(β-indolyl)ethyl-BM123γ | 0.12 mg./kg. of body weight | 
31 | 2-cyclohexylcyclohexyl-BM123γ | 0.75 mg./kg. of body weight | 
32 | 1-methyl-2-(3-methoxyphenyl)ethyl-BM123γ | 0.30 mg./kg. of body weight | 
33 | 1-methyl-2-chloro-2-carbethoxyethyl-BM123γ | 1.5 mg./kg. of body weight | 
34 | 1,2-dimethylpentyl-BM123γ | 0.18 mg./kg. of body weight | 
35 | 2-phenylethyl-BM123γ | 0.18 mg./kg. of body weight | 
36 | 1-methylheptyl-BM123γ | 0.38 mg./kg. of body weight | 
37 | 1-methyl-4-piperidyl-BM123γ | 0.75 mg./kg. of body weight | 
38 | 1-carbomethoxy-2-carbomethoxyethyl-BM123γ | 0.75 mg./kg. of body weight | 
39 | 2-(1-cyclohexen)cyclohexyl-BM123γ | 0.19 mg./kg. of body weight | 
40 | 1,2-dimethylbutyl-BM123γ | 0.12 mg./kg. of body weight | 
41 | 1-methyl-2-carboethoxypropyl-BM123γ | 0.18 mg./kg. of body weight | 
42 | 3,5-dimethylcyclohexyl-BM123γ | < 0.12 mg./kg. of body weight | 

Row | Substance | ED50 (dose required to protect 50% of the mice against E. coli) | ED50 (dose required to protect 50% of the mice against E. coli) (listed as 1-methyl-2,2-dimethylpropyl-BM123γ)
43 | cyclohexyl-BM123γ | 0.75 mg./kg. of body weight | 
44 | 1-methyl-butyn(-2-)yl-BM123γ | < 2.0 mg./kg. of body weight | 
45 | 1-cyclopentylethyl-BM123γ | 0.18 mg./kg. of body weight | 
46 | 3-tert-pentylcyclopentyl-BM123γ | 0.5 mg./kg. of body weight | 
47 | 1-methyl-2-o-[tolylcarbamoylethyl]-BM123γ | 0.25 mg./kg. of body weight | 
48 | 1-methyl-2-(3-hydroxy-2-methylpropyl)-BM123γ | 0.18 mg./kg. of body weight | 
49 | 1,3-dimethylbuten(-2-)yl-BM123γ | 0.3 mg./kg. of body weight | 
50 | cyclooctyl-BM123γ | 0.18 mg./kg. of body weight | 
51 | 3-quinuclidinyl-BM123γ | 0.39 mg./kg. of body weight | 
52 | bicyclo[3.2.1]octanyl-2-BM123γ | < 0.25 mg./kg. of body weight | 
53 | 1-methyl-3-phenylpropen(-2-)yl-BM123γ | 0.25 mg./kg. of body weight | 
54 | 3-methylcyclopentyl-BM123γ | 0.25 mg./kg. of body weight | 
55 | 1-(carbethoxymethyl)butyl-BM123γ | 0.75 mg./kg. of body weight | 
56 | 1-methyl-2-methoxyethyl-BM123γ | 0.3 mg./kg. of body weight | 
57 | norbornyl-BM123γ | 0.18 mg./kg. of body weight | 
58 | 1-methyl-2-hydroxypropyl-BM123γ | 0.37 mg./kg. of body weight | 
59 | 1-methyl-3-(N,N-diethylamino)propyl-BM123γ | 0.18 mg./kg. of body weight | 
60 | 1,3,3-trimethylcyclopentyl-BM123γ | 0.37 mg./kg. of body weight | 
61 | 1,3-dimethylpentyl-BM123γ | < 0.12 mg./kg. of body weight | 
62 | 1-methyl-4-hydroxybutyl-BM123γ | 0.18 mg./kg. of body weight | 
63 | 1-methylnonyl-BM123γ | 0.18 mg./kg. of body weight | 

Row | Substance | ED50 (dose required to protect 50% of the mice against E. coli) | ED50 (dose required to protect 50% of the mice against E. coli) (listed as 1-methyl-2,2-dimethylpropyl-BM123γ)
64 | 1-methyl-2-phenoxyethyl-BM123γ | 0.3 mg./kg. of body weight | 
65 | 1-methyl-2-(2-chlorophenyl)ethyl-BM123γ | 0.37 mg./kg. of body weight | 
66 | 1,3,3-trimethylbutyl-BM123γ | 0.18 mg./kg. of body weight | 
67 | 4-t-butylcyclohexyl-BM123γ | 0.12 mg./kg. of body weight | 
68 | 1-ethylnonyl-BM123γ | 0.38 mg./kg. of body weight | 
69 | 2-(p-methoxyphenyl)ethyl-BM123γ | 0.18 mg./kg. of body weight | 
70 | 1-cyclohexylpropyl-BM123γ | 0.37 mg./kg. of body weight | 
71 | 1-methyl-4-(N,N-diethylamino)butyl-BM123γ | 0.5 mg./kg. of body weight | 
72 | 1-methyl-hexen-4-yl-BM123γ | 0.18 mg./kg. of body weight | 
73 | 1,2,3-trimethylpentyl-BM123γ | 0.39 mg./kg. of body weight | 
74 | 1-methyl-2-(N,N-dimethylamino)propyl-BM123γ | 1.5 mg./kg. of body weight | 
75 | 1,2-dimethylpropyl-BM123γ | 0.19 mg./kg. of body weight | 
76 | 1-[5-norbornene(2)]ethyl-BM123γ | < 0.12 mg./kg. of body weight | 
77 | 2,2,4,4-tetramethylcyclopentyl-BM123γ | 0.75 mg./kg. of body weight | 
78 | 1-methyl-4-chlorobutyl-BM123γ | 0.37 mg./kg. of body weight | 
79 | 2-(tert-butylcarbamoyl)-1-methyl-ethyl-BM123γ | 0.38 mg./kg. of body weight | 
80 | 1-isopropyl-4-methylpentyl-BM123γ | 0.39 mg./kg. of body weight | 
81 | 4-tetrahydrothiopyranyl-BM123γ | 0.38 mg./kg. of body weight | 
82 | 1-methylbutyl-BM123γ | < 0.12 mg./kg. of body weight | 
